The source of these data is patent US20070073056A1, “4-Substituted Pyrazoline Compounds, their Preparation and Use as Medicaments” (LABORATORIOS DEL DR. ESTEVE, S.A., priority 2005, published 2007).

As usually defined, the IC50 is the midpoint of a concentration-inhibition curve.

Experiment [1] concerns the target CB1-receptor (UniProt P20272). The experiment can be described thus: binding of the pyrazoline compounds to CB1-receptors (Pharmacological Methods, Part I). Further details: IC50; species or system human or rat. To be noted: radioligand [3H]-CP55940, read-out: IC50. How it is done:
(§1) I. In-vitro Determination of Affinity to CB1/CB2-Receptors
(§2) The in-vitro determination of the affinity of the inventive 4-substituted pyrazoline compounds to CB1/CB2-Rezeptors is carried out as described in the publication of Ruth A. Ross, Heather C. Brockie et al., “Agonist-inverse agonist characterisation at CB1 and CB2 cannabinoid receptors of L-759633, L759656 and AM630”, British Journal of Pharmacology, 126, 665-672, (1999), whereby the transfected human CB1 and CB2 receptors of Receptor Biology, Inc. are used. The radioligand used for both receptors is [^3H]-CP55940. The respective parts of the description is hereby incorporated by reference and forms part of the present disclosure.
(§3) Rat Cerebellum CB1 Binding
(§4) Binding affinity to CB1 receptor was evaluated according to a modification of the method described by Govaerts et al., Eur J Pharmac Sci 23, 233-243 (2004). The respective parts of the description is hereby incorporated by reference and forms part of the present disclosure.
(§5) Briefly, cerebellum from male wistar rats (250-300 g) were carefully dissected on ice and homogenates were prepared with Potter-Helveheim in a cold 50 mM Tris-HCl solution containing 5 mM MgCl2, 1 mM EDTA and 0.25 M sucrose, pH 7.4. The suspension was centrifuged at […] for 5 minutes. The supernatants were collected and centrifuged 50,000×g for 15 minutes. The resulting pellets were then resuspended in Tris-HCl buffer without sucrose, homogenized and incubated for 15 min at 37° C. in an orbital shaker bath and centrifuged again at 50,000×g for 15 min. Pellets were weighted, resuspended in Tris-HCl buffer without sucrose, homogenized with Ultraturrax at 13,500 rpm for 3×5 seconds and alicuoted in 0.9 ml volumes in Eppendorf tubes. Alicuotes were centrifuged at 20,800×g for 5 minutes, supernatants discarded and pellets were frozen at −80° C. until use. Total protein concentration was determined using the Bio-Rad Lowry method based kit. Competitive binding experiments were performed in presence of 1 nM [^3H]-CP 55,940 in siliconized glass tubes containing 100 μg protein/tube resuspended in 1 ml final volume of 50 mM Tris-HCl, 5 mM MgCl2, 1 mM EDTA, 0.5% (w/v) bovine serum albumin, pH 7.4. Compounds were present at various concentrations and the non specific binding was determined in the presence of 10 μM HU-210. After 1 hour incubation at 30° C., the suspension was rapidly filtered through 0.5% PEI pre-treated GF/B fiber filters on a 96-well harvester and washed 3 times with 3 ml ice-cold binding buffer without bovine serum albumin. Radioactivity on filters was measured with Wallac Winspectral 1414 counter by liquid scintillation in 6 ml Ecoscint H (National Diagnostics, U.K.). Assays were made in triplicates.
(§6) Binding data were analyzed by non-linear regression with the software GraphPad Prism Version 3.03.
(§7) The binding of the pyrazoline compounds of general formula I to CB1-receptors was determined according to the method described in the section Pharmacological Methods, Part I.

The target of experiment [2] is CB1-receptor (UniProt P20272). Described as above. Further details: other: 10^−7 M; other: 10^−8 M; species or system human or rat. The protocol: as §1, §2, §3, §4, §5, §6, §7

Where a name gives a salt, the structure may show the parent alone.

With `C[C@@H]1C(C(=O)NN2CCCCC2)=NN(c2ccc(Cl)cc2Cl)[C@@H]1c1ccc(Cl)s1` (relative stereo) [Example 427, cis-5-(5-chlorothiophen-2-yl)-1-(2,4-dichlorophenyl)-4-methyl-N-(piperidin-1-yl)-4,5-dihydro-1H-pyrazole-3-carboxamide hydrochloride], the IC50 at CB1-receptor [1] was 0.16 µM.
Regarding `C[C@H]1C(C(=O)NN2CCCCC2)=NN(c2ccc(Cl)cc2Cl)[C@@H]1c1ccc(Br)s1` (relative stereo) [Example 71, trans-5-(5-Bromo-thiophen-2-yl)-1-(2,4-dichloro-phenyl)-4-methyl-4,5-dihydro-1H-pyrazole-3-carboxylic acid piperidin-1-ylamide], the IC50 at CB1-receptor [1] is above 1 µM.
Consider `CC1CCN(NC(=O)C2=NN(c3ccc(Cl)cc3Cl)[C@@H](c3ccc(Cl)cc3)[C@H]2C)CC1` (relative stereo) [Example 9, cis-5-(4-Chloro-phenyl)-1-(2,4-dichloro-phenyl)-4-methyl-4,5-dihydro-1H-pyrazole-3-carboxylic acid (4-methyl-piperidin-1-yl)-amide], for which the IC50 at CB1-receptor [1] was determined as 0.0773 µM.
For `C[C@@H]1C(C(=O)NN2CCCCC2)=NN(c2ccc(Cl)cc2Cl)[C@@H]1c1ccc(Cl)cc1` (relative stereo) [Example 434, cis-5-(4-chlorophenyl)-1-(2,4-dichlorophenyl)-4-methyl-N-(piperidin-1-yl)-4,5-dihydro-1H-pyrazole-3-carboxamide], the IC50 on CB1-receptor [1] came to 0.089 µM.
Same read-out and setting: as for `C[C@@H]1C(C(=O)NN2CCCCC2)=NN(c2ccc(Cl)cc2Cl)[C@H]1c1ccc(Cl)s1` (relative stereo) [Example 426, trans-5-(5-chlorothiophen-2-yl)-1-(2,4-dichlorophenyl)-4-methyl-N-(piperidin-1-yl)-4,5-dihydro-1H-pyrazole-3-carboxamide hydrochloride], the figure is 0.28 µM; as for `C[C@@H]1C(C(=O)NN2CCCCC2)=NN(c2ccc(Cl)cc2Cl)[C@H]1c1ccc(Cl)cc1` (relative stereo) [Example 431, trans-5-(4-chlorophenyl)-1-(2,4-dichlorophenyl)-4-methyl-N-(piperidin-1-yl)-4,5-dihydro-1H-pyrazole-3-carboxamide], 0.079 µM.
On to `C[C@H]1C(C(=O)NN2CCc3ccccc32)=NN(c2ccc(Cl)cc2Cl)[C@H]1c1ccc(F)cc1` (relative stereo) [Example 235, cis-1-(2,4-dichlorophenyl)-5-(4-fluorophenyl)-N-(indolin-1-yl)-4-methyl-4,5-dihydro-1H-pyrazole-3-carboxamide], for which the Inhibition at CB1-receptor [2] (10^−7 M) stood at 25.9%; at CB1-receptor [2] (10^−8 M, in %), 5.4.
In the same order, the values of `C[C@@H]1C(C(=O)NN2CCN(C3CCCC3)CC2)=NN(c2ccc(Cl)cc2Cl)[C@@H]1c1ccc(Cl)cc1.Cl` (relative stereo) [Example 100, cis-5-(4-chlorophenyl)-N-(4-cyclopentylpiperazin-1-yl)-1-(2,4-dichlorophenyl)-4-methyl-4,5-dihydro-1H-pyrazole-3-carboxamide hydrochloride] are 32.6% and 5.4.
As to `C[C@@H]1C(C(=O)N[C@H]2C[C@H]3CC[C@]2(C)C3(C)C)=NN(c2ccc(Cl)cc2Cl)[C@@H]1c1ccc(Cl)cc1` (mixture of isomers) [Example 422, cis-5-(4-chlorophenyl)-1-(2,4-dichlorophenyl)-4-methyl-N-((1R,2S,4R)-1,7,7-trimethylbicyclo[2.2.1]heptan-2-yl)-4,5-dihydro-1H-pyrazole-3-carboxamide], the Inhibition was −2% on CB1-receptor [2] (10^−7 M) and −8.4 at CB1-receptor [2] (10^−8 M, in %).
In the same order, the values of `C[C@@H]1C(C(=O)NCC2CCCCC2)=NN(c2ccc(Cl)cc2Cl)[C@@H]1c1ccc(Cl)cc1` (relative stereo) [Example 114, cis-5-(4-chlorophenyl)-N-(cyclohexylmethyl)-1-(2,4-dichlorophenyl)-4-methyl-4,5-dihydro-1H-pyrazole-3-carboxamide] are 28.3% and −13.
With `C[C@@H]1C(C(=O)NN2C(=O)c3cccc4cccc(c34)C2=O)=NN(c2ccc(Cl)cc2Cl)[C@@H]1c1ccc(Cl)cc1` (relative stereo) [Example 104, cis-5-(4-Chlorophenyl)-1-(2,4-dichlorophenyl)-4-methyl-4,5-dihydro-1H-pyrazole-3-carboxylic acid (1,3-dioxo-1H,3H-benzo[de]isoquinolin-2-yl)-amide], the Inhibition on CB1-receptor [2] (10^−7 M) is 31.7%; on CB1-receptor [2] (10^−8 M, in %), −0.4.
In the same order, the values of `COc1ccc([C@H]2[C@@H](C)C(C(=O)O)=NN2c2ccc(Cl)cc2Cl)cc1` (racemic) [Example 261, cis-1-(2,4-dichlorophenyl)-5-(4-methoxyphenyl)-4-methyl-4,5-dihydro-1H-pyrazole-3-carboxylic acid] are −6.9% and −5.
On the same counts, the results for `C[C@@H]1C(C(=O)O)=NN(c2ccccc2Cl)[C@@H]1c1ccc(Cl)s1` (relative stereo) [Example 363, cis-1-(2-chlorophenyl)-5-(5-chlorothiophen-2-yl)-4-methyl-4,5-dihydro-1H-pyrazole-3-carboxylic acid] are 11.3% and 12.2.
`CCOC(=O)C1=NN(c2ccc(Cl)cc2Cl)[C@@H](c2ccccc2)[C@@H]1C` (relative stereo) [Example 421, trans-ethyl 1-(2,4-dichlorophenyl)-4-methyl-5-phenyl-4,5-dihydro-1H-pyrazole-3-carboxylate]: the Inhibition stood at 31.2% on CB1-receptor [2] (10^−7 M) and 38 at CB1-receptor [2] (10^−8 M, in %).
Consider `C[C@@H]1C(C(=O)N[C@@H]2CCCC[C@H]2OCc2ccccc2)=NN(c2ccc(Cl)cc2Cl)[C@@H]1c1ccc(Cl)cc1` (mixture of isomers) [Example 437, (−)-cis-N-((1R,2R)-2-(benzyloxy)cyclohexyl)-5-(4-chlorophenyl)-1-(2,4-dichlorophenyl)-4-methyl-4,5-dihydro-1H-pyrazole-3-carboxamide], for which the Inhibition at CB1-receptor [2] (10^−7 M) turned out to be 40.9%; on CB1-receptor [2] (10^−8 M, in %), 14.7.
For the compound `C[C@@H]1C(C(=O)N[C@H]2CCCC[C@@H]2OCc2ccccc2)=NN(c2ccc(Cl)cc2Cl)[C@@H]1c1ccc(Cl)cc1` (mixture of isomers) [Example 409, (+)-cis-N-((1S,2S)-2-(benzyloxy)cyclohexyl)-5-(4-chlorophenyl)-1-(2,4-dichlorophenyl)-4-methyl-4,5-dihydro-1H-pyrazole-3-carboxamide], the Inhibition was −5.8% at CB1-receptor [2] (10^−7 M) and −37 on CB1-receptor [2] (10^−8 M, in %).
For “cis-1-(2,4-dichlorophenyl)-5-(4-hydroxyphenyl)-4-methyl-N-(piperidin-1-yl)-4,5-dihydro-1H-pyrazole-3-carboxamide [Example 343]”, the Inhibition on CB1-receptor [2] (10^−7 M) was −10.1%; on CB1-receptor [2] (10^−8 M, in %), −15.8.
Take `C[C@@H]1C(C(=O)NN2CCCCCC2)=NN(c2ccc(Cl)cc2Cl)[C@@H]1c1ccc(F)cc1` (stereo in doubt) [Example 414, cis-N-(azepan-1-yl)-1-(2,4-dichlorophenyl)-5-(4-fluorophenyl)-4-methyl-4,5-dihydro-1H-pyrazole-3-carboxamide]: the Inhibition at CB1-receptor [2] (10^−7 M) was 36.2%; on CB1-receptor [2] (10^−8 M, in %), 28.7.
Turning to `COc1ccc([C@@H]2[C@@H](C)C(C(=O)O)=NN2c2ccc(Cl)cc2Cl)cc1` [Example 412, (4R,5S)-1-(2,4-dichlorophenyl)-5-(4-methoxyphenyl)-4-methyl-4,5-dihydro-1H-pyrazole-3-carboxylic acid], the Inhibition is listed as −15.4% on CB1-receptor [2] (10^−7 M) and −11.1 on CB1-receptor [2] (10^−8 M, in %).
For `COC[C@@H]1CCCN1NC(=O)C1=NN(c2ccc(Cl)cc2Cl)[C@H](c2ccc(Cl)cc2)[C@@H]1C.Cl` (mixture of isomers) [Example 107, cis-5-(4-chlorophenyl)-1-(2,4-dichlorophenyl)-N-((S)-2-(methoxymethyl)pyrrolidin-1-yl)-4-methyl-4,5-dihydro-1H-pyrazole-3-carboxamide hydrochloride], the Inhibition is given as 43.9% at CB1-receptor [2] (10^−7 M) and 2.7 on CB1-receptor [2] (10^−8 M, in %).
